Measurements published in patent publication US11976054B2, “Amide derivative and preparation method therefore and use thereof in medicine” (Chengdu Baiyu Pharmaceutical Co., Ltd., priority 2019, dated 2024).

How the values were obtained:
[1] = test system: Human monocyte cell line THP-1; assay: Detection of THP-1 cell pyroptosis (Caspase-Glo 1 Inflammasome Assay); assay type: cell-based; conditions: THP-1 pyroptosis, 20 nM PMA 48 h, 1 μg/mL LPS, compound 3 h
Outline: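 Differentiated with 20 nM PMA for 48 h (50,000 cells/well), then given serum-free medium with 1 μg/mL LPS and compound in a 10-point, 3-fold series from 10 μM for 3 h at 37 °C. Caspase-1 activity read with Caspase-Glo 1 Inflammasome kit; IC50 calculated.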

[2] = test system: Rat dorsal air pouch models; assay: Rat dorsal air pouch pharmacodynamic models (sodium urate); assay type: in vivo, SD rats; conditions: air pouch exudate 5 h after 1% sodium urate; for IL-1β concentration in exudate: ELISA
Protocol: Healthy adult male SD rats weighing 180-220 g were purchased, and rat dorsal air pouch models were constructed after adaptive feeding of the rats. On day 1, day 4 and day 7 of modeling, 20 mL of sterile air was injected subcutaneously into the back of rats by means of injection needles, and the air pouch was maintained at an inflated state. On day 8, 50 mg/kg compound or vehicle control was administered intragastrically. 5 mL of 1% sodium urate suspension was injected into the dorsal air pouch, and air pouch exudate was collected 5 h later. 40 μL of the exudate was taken for leukocyte counting. The remaining exudate was centrifuged at 1500 rpm for 20 min, and the supernatant was collected to detect the expression level of IL-1β by ELISA (BD, Human IL-1β ELISA Set II, Cat #557953).

[3] = Pharmacokinetic analysis of compounds in rats; assay type: in vivo, SD rats; conditions: for F %: po 10 mg/kg vs iv 1 mg/kg
Outline: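 Fasted SD rats (180–220 g) dosed by tail vein or intragastrically. Orbital-plexus blood sampled pre-dose and from 5 min to 24 h. Plasma parent drug quantified by LC-MS/MS.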

[4] = test system: IL-1β release in human PBMCs; assay: Assay of IL-1β release in human PBMCs; assay type: cell-based; conditions: 10 ng/mL LPS 3 h, compound 0.5 h, 5 mM ATP 1 h, ELISA
Protocol: 5 mL of human venous whole blood from a healthy donor was placed in a Li-heparin tube. PBMCs were isolated and incubated in a culture medium containing 10 ng/mL LPS at 37° C./5% CO2 for 3 h. Cells were plated in a 96-well plate at 50 μL per well. 25 μL of compound or solvent control was added to each well and 3-fold diluted in gradient from a maximum concentration of 10 μM, and 8 gradient concentrations were set. The mixtures were incubated for 0.5 h. 25 μL of ATP at a final concentration of 5 mM was added to each well, and the resulting mixtures were incubated for 1 h. After the incubation, the mixtures were centrifuged at 1500 rpm for 20 min, and the supernatant was collected to detect the expression level of […] by ELISA (BD, Human IL-1β ELISA Set II, Cat #557953). IC50 was calculated using GraphPad Prism7.0 software. The results are shown in Table 2, which indicate that: the compounds disclosed herein down-regulate release of mature IL-1β by inhibiting the activity of Caspase-1, and the IC50 is <50 nM.

[5] = SD rats, iv (tail vein), 1 mg/kg, plasma
[6] = SD rats, po (intragastric), 10 mg/kg, plasma

| SMILES | IC50 [1] [µM] | Leukocyte concentration (10^6/mL) ([2]; 50 mg/kg intragastric) | IL-1β concentration in exudate ([2]; 50 mg/kg intragastric) [pg/mL] | AUC [3, 5] [ng·h/mL] | Cl [3, 5] [mL/min/kg] | Vss [3, 5] [L/kg] | t1/2 [3, 5] [h] | F % ([3]; SD rats) [%] | AUC [3, 6] [ng·h/mL] | Cmax [3, 6] [ng/mL] | t1/2 [3, 6] [h] | IC50 [4] [µM] | also measured |
| --- | --- | --- | --- | --- | --- | --- | --- | --- | --- | --- | --- | --- | --- |
| C[C@@H](c1ccc2c(c1NC(=O)NS(=N)(=O)c1cc(C(C)(C)O)co1)CCC2)C1CC1 (mixture of isomers) [Compound 6-1, (RS, RC)- and (SS, RC)-N-((5-(-1-cyclopropylethyl)-2,3-dihydro-1H-inden-4-yl)carbamoyl)-4-(2-hydroxypropan-2-yl)furan-2-sulfonimidamide] | ≤ 0.1 | 1.99 ± 0.4 10^6/mL | 895.7 ± 266.4 | 6312 | 2.7 | 0.26 | 1.6 | 65.8 | 41521 | 13900 | 2.5 |  |  |
| CC(c1ccc2c(c1NC(=O)NS(=N)(=O)c1cc(C(C)(C)O)co1)CCC2)C1CC1 (racemic) [Compound 8-1, (RS, SC)- and (SS, SC)-N-((5-(1-cyclopropylethyl)-2,3-dihydro-1H-inden-4-yl)carbamoyl)-4-(2-hydroxypropan-2-yl)furan-2-sulfonimidamide] | ≤ 0.1 | 2.25 ± 0.5 10^6/mL | 1522.5 ± 313.2 | 2557 | 6.8 | 0.296 | 0.74 | 56.2 | 14367 | 6397 | 2.4 | 0.0263 |  |
| CC(C)(O)c1coc(S(=N)(=O)NC(=O)Nc2c(CC3CCC3)ccc3c2CCC3)c1 (single isomer, unassigned) [Compound 18-2, RS- and SS-N-((5-(cyclobutylmethyl)-2,3-dihydro-1H-inden-4-yl)carbamoyl)-4-(2-hydroxypropan-2-yl)furan-2-sulfonimidamide] | ≤ 0.1 | 1.72 ± 0.3 10^6/mL | 795.5 ± 232.8 |  |  |  |  |  |  |  |  | 0.0112 | AUC ([3]; rat, in vivo, iv, 1 mg/kg): 3691 ng·h/mL; Cl ([3]; rat, in vivo, iv, 1 mg/kg): 5.6 mL/min/kg; Vss ([3]; rat, in vivo, iv, 1 mg/kg): 0.346 L/kg; t1/2 ([3]; rat, in vivo, iv, 1 mg/kg): 0.86 h; AUC ([3]; rat, in vivo, po, 10 mg/kg): 28427 ng·h/mL; Cmax ([3]; rat, in vivo, po, 10 mg/kg): 16600 ng/mL; t1/2 ([3]; rat, in vivo, po, 10 mg/kg): 3.1 h |
| COc1cc2c(c(OC)c1OC)-c1ccc(OC)c(=O)cc1[C@@H](NC(C)=O)CC2 [Colchicine, reference compound] |  |  |  |  |  |  |  |  |  |  |  |  | Leukocyte concentration (10^6/mL) ([2]; 30 mg/kg): 3.40 ± 0.7 10^6/mL; IL-1β concentration in exudate ([2]; 30 mg/kg): 1190.9 ± 463.6 pg/mL |
